Tests used:
Assay in all cases: Whole-cell patch-clamp, DGCs in hippocampal slices, acute drug application
Format in all cases: cell-based, rat
[1] = system: T1, GABAARs; details: in the presence of 60 mM EtOH, rat hippocampal slices
T1 construct: other: in the presence of 60 mM EtOH, rat hippocampal; shift of the GABA concentration-response curve
Protocol: (§1) Transverse slices (400 μm) of dorsal hippocampus were obtained with a Vibratome (VT 100, Technical Products International, St. Louis, Mo.) and standard techniques known in the art. Slices were continuously perfused with artificial cerebrospinal fluid (ACSF).
(§2) Signals were recorded in voltage-clamp mode with a […] amplifier (Molecular Devices, Sunnyvale, Calif.). Whole cell access resistances were in the range of <25 MΩ before electrical compensation by about 70%. During voltage-clamp recordings, access resistance was monitored by measuring the size of the capacitative transient in response to a 5 mV step command and the data were abandoned if changes >20% were encountered. At least 10 min was allowed for equilibration of the pipette solution with the intracellular milieu before commencing mIPSC recordings.
(§3) Data were analyzed using the Clampfit (Version 9.0, Molecular Devices) and the MiniAnalysis Program (versions 6.0.7, Synaptosoft, Decatur, Ga.).
(§4) The MiniAnalysis program (Synaptosoft, Decatur, Ga.) was used to analyze mIPSCs. Itonic is the averaged baseline currents of a given recording period. Itonic amplitude was calculated as the difference between the holding currents measured before and after picrotoxin (100 μM) or bicuculline (10 μM). […] Briefly, the recordings were low-pass filtered off-line (Clampfit software) at 2 kHz. The mIPSCs were detected (Mini Analysis Program, version 6.0.7) with threshold criteria of 8 pA amplitude and 20 pA*ms charge transfer. The frequency of mIPSCs was determined from all automatically detected events in a given 100 s recording period. For kinetic analysis, only single event mIPSCs with a stable baseline, sharp rising phase (10 to 90% rise time), and exponential decay were chosen during visual inspection of the recording trace. Double and multiple peak mIPSCs were excluded. At least 100 individual mIPSC events were recorded under each experimental condition. The mIPSC kinetics was obtained from analysis of the averaged chosen single events aligned with half rise time in each cell. Decay time constants were obtained by fitting a double exponential to the falling phase of the averaged mIPSCs. Itonic magnitudes were obtained from the averaged baseline current of a given recording period. Itonic amplitude was calculated as the difference between the holding currents measured before and after the application of picrotoxin (50 μM) or bicuculline (10 μM). […] The investigator performing the recordings and mIPSC analysis was blind to the treatment (vehicle, EtOH, E+D, or D) that the rats received.
(§5) As performed previously, whole-cell patch-clamp recordings in dentate gyms granule cells (DGCs) from hippocampal slices in vitro were conducted.

[2] = system: T2, GABAARs
T2 construct: DHM-enhanced Itonic; EC50 on GABAAR-mediated Itonic; other: control (vehicle) cultured neurons, DIV14; other: cultured neurons with EtOH exposure/withdrawal (60 mM, 30 min, 24 hr); EtOH-potentiated Itonic; GABAAR-mediated Ito
Protocol: as §1, §2, §3, §4, §5

[3] = system: T3, GABAARs
T3 construct: DHM-enhanced mIPSCs; other: control (vehicle) cultured neurons, DIV14; other: cultured neurons with EtOH exposure/withdrawal (60 mM, 30 min, 24 hr); EtOH-potentiated mIPSCs; effect on post-synaptic currents (mIPSCs); other: comparative experiments, rat hippocampal slices
Protocol: as §1, §2, §3, §4, §5

[4] = DHM 0.3 μM, DGCs from naïve rats
[5] = DHM 1 μM, DGCs in hippocampal slices
[6] = comparative experiments, rat hippocampal slices

SMILES: O=C1c2c(O)cc(O)cc2O[C@H](c2cc(O)c(O)c(O)c2)[C@H]1O [DHM, (2R,3R)-3,5,7-trihydroxy-2-(3,4,5-trihydroxyphenyl)-2,3-dihydrochromen-4-one]
- block of EtOH potentiation of GABAAR-mediated Itonic and mIPSCs [1]: dose-dependently blocks
- GABAAR-mediated Itonic [2, 4]: 29.0±6.7 pA
- Itonic [2, 5]: 44.0±4.1 pA
- Itonic in presence of DHM plus EtOH ([2]; DHM (0.3 μM) followed by co-application of 60 mM EtOH): 44.4±3.6 pA
- Itonic in presence of DHM before EtOH ([2]; DHM (0.3 μM, FIG. 3 panel c) before EtOH): 41.1±2.2 pA
- EtOH-potentiated Itonic ([2]; EtOH 60 mM + DHM 3 μM): 21.0±0.9 pA
- EtOH-potentiated Itonic ([2]; EtOH 60 mM followed by co-application of 1 μM DHM): 32.0±2.0 pA
- effect on extrasynaptic GABAAR-mediated tonic current (Itonic) [2, 6]: potentiates
- mIPSC total charge transfer (area) [3, 4]: 615±22 fC
- mIPSC area [3, 5]: 0.72±0.03 nC
- EtOH-potentiated mIPSCs ([3]; EtOH 60 mM + DHM 3 μM): 0.70±0.02 nC
- effect on post-synaptic currents (mIPSCs) [3, 6]: potentiates

Source: patent publication US20130053435A1, “Methods of Treating Alcohol Intoxication, Alcohol Use Disorders and Alcohol Abuse Which Comprises the Administration of Dihydromyricetin” (priority 2011, published 2013)
